Data on 9 compounds can be found in US6350764B2, “Heteroaryl aminoguanidines and alkoxyguanidines and their use as protease inhibitors” (3-Dimensional Pharmaceuticals, Inc., priority 1997, dated 2002).

Common to all, as to format: biochemical
One experiment deals with T1, human plasmin (Homo sapiens, UniProt P00747).
T1 construct: Purified human plasmin was diluted into assay buffer; purchased Enzyme Research Laboratories (South Bend)
In words: In vitro inhibition of purified enzymes: plasmin, hydrolysis of N-p-Tosyl-Gly-Pro-Lys-p-nitroanilide. The text has this:
(§1) Reagents: All buffer salts were obtained from Sigma Chemical Company (St. Louis, Mo.), and were of the highest purity available. The enzyme substrates, N-benzoyl-Phe-Val-Arg-p-nitroaniide (Sigma B7632) N-benzoyl-Ile-Glu-Gly-Arg-p-nitroanilide hydrochloride (Sigma B2291), N-p-Tosyl-Gly-Pro-Lys-p-nitroanilide (Sigma T6140), N-succinyl-Ala-Ala-Pro-Phe-p-nitroanilide (Sigma S7388) and N-CBZ-Val-Gly-Arg-p-nitroanilide (Sigma C7271) were obtained from Sigma. N-succinyl-Ala-Ala-Pro-Arg-p-nitroanilide (BACHEM L-1720) and N-succinyl-Ala-Ala-Pro-Val-p-nitroanilide (BACHEM L-1770) were obtained from BACHEM (King of Prussia, Pa.).
(§2) Human α-thrombin, human factor Xa and human plasmin were obtained from Enzyme Research Laboratories (South Bend, Id.). Bovine α-chymotrypsin (Sigma C4129), bovine trypsin (Sigma T8642) and human kidney cell urokinase (Sigma U5004) were obtained from Sigma. Human leukocyte elastase was obtained from Elastin Products (Pacific, Mo.).
(§3) Ki Determinations: All assays are based on the ability of the test compound to inhibit the enzyme catalyzed hydrolysis of a peptide p-nitroanilide substrate. In atypical Ki determination, substrate is prepared in DMSO, and diluted into an assay buffer consisting of 50 mM HEPES, 200 mM NaCl, pH 7.5. The final concentrations for each of the substrates is listed below. In general, substrate concentrations are lower than the experimentally determined value for Km. Test compounds are prepared as a 1.0 mg/ml solution in DMSO. Dilutions are prepared in DMSO yielding 8 final concentrations encompassing a 200 fold concentration range. Enzyme solutions are prepared at the concentrations listed below in assay buffer.
(§4) In a typical Ki determination, into each well of a 96 well plate is pipetted 280 mL of substrate solution, 10 mL of test compound solution, and the plate allowed to thermally equilibrate at 37° C. in a Molecular Devices plate reader for>15 minutes. Reactions were initiated by the addition of a […] aliquot of enzyme and the absorbance increase at 405 nm is recorded for 15 minutes. Data corresponding to less than 10% of the total substrate hydrolysis were used in the calculations. The ratio of the velocity (rate of change in absorbance as a function of time) for a sample containing no test compound is divided by the velocity of a sample containing test compound, and is plotted as a function of test compound concentration. The data are fit to a linear regression, and the value of the slope of the line calculated. The inverse of the slope is the experimentally determined Ki value.
Plasmin: Plasmin activity was assessed as the ability to hydrolyze the N-p-Tosyl-Gly-Pro-Lys-p-nitroanilide. Substrate solutions were prepared at a concentration of 37 mM (37 mM<<Km=243 mM) in assay buffer. Final DMSO concentration was 4.3%. Purified human plasmin was diluted into assay buffer to a concentration of 240 nM. Final reagent concentrations were: [Plasmin]=8 nM, [N-p-Tosyl-Gly-Pro-Lys-p-nitroanilide]=37 mM.

The target in the next experiment is T2, bovine α-chymotrypsin (Bos taurus, UniProt P00766).
T2 construct: Bovine α-chymotrypsin (Sigma C4129); purchased Sigma C4129
In words: In vitro inhibition of purified enzymes: chymotrypsin, hydrolysis of N-succinyl-Ala-Ala-Pro-Phe-p-nitroanilide.
Text: as §1, §2, §3, §4
Chymotrypsin: Chymotrypsin activity was assessed as the ability to hydrolyze N-succinyl-Ala-Ala-Pro-Phe-p-nitroanilide. […] Final DMSO concentration was 4.3%. Purified bovine chymotrypsin was diluted into assay buffer to a concentration of 81 nM. Final reagent concentrations were: [Chymotrypsin]=2.7 nM, [N-succinyl-Ala-Ala-Pro-Phe-p-nitroanilide]=14 mM.

A further experiment deals with T3, bovine trypsin (Bos taurus, UniProt P00760).
T3 construct: Purified bovine trypsin was diluted into assay buffer; purchased Sigma T8642
T3 sequence (P00760 24-246): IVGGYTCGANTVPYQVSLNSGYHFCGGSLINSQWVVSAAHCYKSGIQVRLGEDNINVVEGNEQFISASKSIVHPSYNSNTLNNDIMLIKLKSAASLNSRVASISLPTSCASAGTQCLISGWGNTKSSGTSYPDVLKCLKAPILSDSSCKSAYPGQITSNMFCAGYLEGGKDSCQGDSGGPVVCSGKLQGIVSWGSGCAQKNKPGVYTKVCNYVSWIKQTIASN
In words: In vitro inhibition of purified enzymes: trypsin, hydrolysis of N-benzoyl-Phe-Val-Arg-p-nitroanilide. To be noted: for Ki: 37° C., pH 7.5.
Text: as §1, §2, §3, §4
Trypsin: Trypsin activity was assessed as the ability to hydrolyze N-benzoyl-Phe-Val-Arg-p-nitroanilide. […] Final DMSO concentration was 4.3%. Purified bovine trypsin was diluted into assay buffer to a concentration of 120 nM. Final reagent concentrations were: [Trypsin]=4 nM, [N-benzoyl-Phe-Val-Arg-p-nitroanilide]=13 mM.

A further experiment deals with T4, human α-thrombin (Homo sapiens, UniProt P00734).
T4 construct: Purified human a-thrombin was diluted into assay buffer; purchased Enzyme Research Laboratories (South Bend)
Kind of experiment: In vitro inhibition of purified enzymes: thrombin, hydrolysis of N-succinyl-Ala-Ala-Pro-Arg-p-nitroanilide. Particulars: 37° C., pH 7.5.
Text: Reagents: All buffer salts were obtained from Sigma Chemical Company (St. Louis, Mo.), and were of the highest purity available. The enzyme substrates, N-benzoyl-Phe-Val-Arg-p-nitroaniide (Sigma B7632) N-benzoyl-Ile-Glu-Gly-Arg-p-nitroanilide hydrochloride (Sigma B2291), N-p-Tosyl-Gly-Pro-Lys-p-nitroanilide (Sigma T6140), N-succinyl-Ala-Ala-Pro-Phe-p-nitroanilide (Sigma S7388) and N-CBZ-Val-Gly-Arg-p-nitroanilide (Sigma C7271) were obtained from Sigma.
as §2
Ki Determinations: All assays are based on the ability of the test compound to inhibit the enzyme catalyzed hydrolysis of a peptide p-nitroanilide substrate. […] The final concentrations for each of the substrates is listed below. In general, substrate concentrations are lower than the experimentally determined value for Km. Test compounds are prepared as a 1.0 mg/ml solution in DMSO. Dilutions are prepared in DMSO yielding 8 final concentrations encompassing a 200 fold concentration range. Enzyme solutions are prepared at the concentrations listed below in assay buffer.
as §4, with “Reactions” for “In a typical Ki determination, into each well of a 96 well plate is pipetted 280 mL of substrate solution, 10 mL of test compound solution, and the plate allowed to thermally equilibrate at 37° C. in a Molecular Devices plate reader for>15 minutes. Reactions”
Thrombin: Thrombin activity was assessed as the ability to hydrolyze the substrate N-succinyl-Ala-Ala-Pro-Arg-p-nitroanilide. […] Final reagent concentrations were: [thrombin]=0.5 nM, [substrate N-succinyl-Ala-Ala-Pro-Arg-p-nitroanilide]=32 mM.

In another experiment the target is T5, human leukocyte elastase (Homo sapiens, UniProt P08246).
T5 construct: purchased Elastin Products (Pacific, Mo.)
T5 sequence (P08246 30-247 limits assumed): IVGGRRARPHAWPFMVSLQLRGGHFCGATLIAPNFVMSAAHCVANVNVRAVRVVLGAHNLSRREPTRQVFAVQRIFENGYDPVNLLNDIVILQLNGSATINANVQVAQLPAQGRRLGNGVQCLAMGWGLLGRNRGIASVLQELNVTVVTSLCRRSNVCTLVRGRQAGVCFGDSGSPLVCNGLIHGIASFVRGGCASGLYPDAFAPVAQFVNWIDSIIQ
In words: In vitro inhibition of purified enzymes: elastase, hydrolysis of N-succinyl-Ala-Ala-Pro-Val-p-nitroanilide. To be noted: for inhibition at 18 µM: at 18,000 nM.
Text: as §1, §2, §3, §4
Elastase: Elastase activity was assessed as the ability to hydrolyze N-succinyl-Ala-Ala-Pro-Val-p-nitroanilide. Substrate solutions were prepared at a concentration of 19 mM (19 mM<<Km=89 mM) in assay buffer. Final DMSO concentration was 4.3%. Purified human leukocyte elastase was diluted into assay buffer to a concentration of 750 nM. Final reagent concentrations were: [Elastase]=25 nM, [N-succinyl-Ala-Ala-Pro-Val-p-nitroanilide]=19 mM.

For a further experiment, the target named is T6, human factor Xa (Homo sapiens, UniProt P00742).
T6 construct: purchased Enzyme Research Laboratories (South Bend)
T6 sequence (P00742 235-488 limits assumed): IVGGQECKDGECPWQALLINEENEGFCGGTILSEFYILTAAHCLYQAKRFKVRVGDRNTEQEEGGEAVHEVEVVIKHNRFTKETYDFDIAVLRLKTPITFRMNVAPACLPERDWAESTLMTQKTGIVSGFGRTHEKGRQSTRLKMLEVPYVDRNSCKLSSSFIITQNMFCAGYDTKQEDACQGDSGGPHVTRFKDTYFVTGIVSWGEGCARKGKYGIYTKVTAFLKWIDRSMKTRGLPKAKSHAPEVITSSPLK
T6 sequence (P00742 41-179 partner limits assumed): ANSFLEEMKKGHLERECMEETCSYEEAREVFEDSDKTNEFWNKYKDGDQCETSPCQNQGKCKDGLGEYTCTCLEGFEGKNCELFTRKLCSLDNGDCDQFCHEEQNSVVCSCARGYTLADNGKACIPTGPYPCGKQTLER
Kind of experiment: In vitro inhibition of purified enzymes: Factor X [FXa], hydrolysis of N-benzoyl-Ile-Glu-Gly-Arg-p-nitroanilide. Particulars: 37° C., pH 7.5.
Text: as §1, §2, §3, §4
Factor X [FXa]: FXa activity was assessed as the ability to hydrolyze the substrate N-benzoyl-Ile-Glu-Gly-Arg-p-nitroanilide hydrochloride. […] Final DMSO concentration was 4.3%. Purified activated human Factor X was diluted into assay buffer to a concentration of 300 nM. Final reagent concentrations were: [FXa]=10 nM, [N-benzoyl-Ile-Glu-Gly-Arg-p-nitroanilide hydrochloride]=51 mM.

Where a name gives a salt, the structure may show the parent alone.

T1 sequence (P00747 581-810 limits assumed): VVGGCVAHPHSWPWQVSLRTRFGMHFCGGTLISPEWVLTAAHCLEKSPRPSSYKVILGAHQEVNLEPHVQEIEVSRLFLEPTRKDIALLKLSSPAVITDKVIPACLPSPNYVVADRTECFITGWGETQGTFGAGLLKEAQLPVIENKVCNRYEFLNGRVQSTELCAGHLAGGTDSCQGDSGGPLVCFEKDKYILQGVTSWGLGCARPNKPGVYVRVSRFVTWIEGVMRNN
T1 sequence (P00747 97-580 partner limits assumed): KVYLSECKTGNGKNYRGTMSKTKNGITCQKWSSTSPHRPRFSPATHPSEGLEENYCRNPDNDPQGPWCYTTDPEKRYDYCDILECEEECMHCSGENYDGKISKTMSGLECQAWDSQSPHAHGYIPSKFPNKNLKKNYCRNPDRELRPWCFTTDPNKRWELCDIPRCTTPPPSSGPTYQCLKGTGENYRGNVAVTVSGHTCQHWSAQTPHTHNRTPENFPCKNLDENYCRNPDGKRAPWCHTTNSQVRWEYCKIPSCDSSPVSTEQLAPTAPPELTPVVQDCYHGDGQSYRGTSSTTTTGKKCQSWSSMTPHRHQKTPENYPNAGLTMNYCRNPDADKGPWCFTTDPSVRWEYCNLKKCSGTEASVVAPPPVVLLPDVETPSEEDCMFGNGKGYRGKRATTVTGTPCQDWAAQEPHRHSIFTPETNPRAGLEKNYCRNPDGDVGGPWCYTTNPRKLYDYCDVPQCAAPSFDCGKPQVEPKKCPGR

Take `Cc1ccc(NS(=O)(=O)c2ccc3cc(Cl)ccc3c2)c(=O)n1CC(=O)NCCONC(=N)N` [Example 85, 3-(6-Chloronaphthalene-2-sulfonyl)amino-6-methyl-1-[(2-guanidinooxyethyl)aminocarbonylmethyl]-2-pyridinone trifluoroacetate]: the inhibition at 18 µM turned out to be 0% at human plasmin (at 18,000 nM); 0% at bovine α-chymotrypsin (at 18,000 nM, read-out: % Inhibition Chymo.); 0% on human leukocyte elastase. The Ki at bovine trypsin was determined as 1.6 µM; on human α-thrombin, 0.29 µM; at human factor Xa, 1.3 µM.
Take `Cc1ccc(NS(=O)(=O)Cc2ccc(Cl)cc2)c(=O)n1CC(=O)NCCONC(=N)N` [Example 16, 3-(4-Chlorobenzylsulfonyl)amino-6-methyl-1-[(2-guanidinooxyethyl)aminocarbonylmethyl]-2-pyridinone trifluoroacetate]: the inhibition constant Ki at bovine trypsin was 4 µM; on human α-thrombin it was 0.002 µM; at human factor Xa, 2.2 µM. This compound registered an inhibition at 19 µM on human leukocyte elastase (at 19,000 nM) of 0%.
Consider `Cc1ccc(NS(=O)(=O)Cc2ccccc2)c(=O)n1CC(=O)NCCONC(=N)N` [Example 2, 3-Benzylsulfonylamino-6-methyl-1-[(2-guanidinooxyethyl)aminocarbonylmethyl]-2-pyridinone trifluoroacetate], for which the inhibition at 24.5 µM against human plasmin (at 24,500 nM), against bovine trypsin (at 24,500 nM) and at human leukocyte elastase (at 24,500 nM) was 0% throughout. Also, the Ki on bovine α-chymotrypsin (37° C., pH 7.5, read-out: Ki Chymo.) was 14 µM; on human α-thrombin, 0.0079 µM; on human factor Xa it was 24 µM.
For `Cc1ccc(NS(=O)(=O)c2ccccc2Cl)c(=O)n1CC(=O)NCCONC(=N)N` [Example 30, 3-(2-Chlorophenylsulfonyl)amino-6-methyl-1-[(2-guanidinooxyethyl)aminocarbonylmethyl]-2-pyridinone trifluoroacetate], the inhibition at 23.5 µM stood at 0% against human plasmin (at 23,500 nM); 0% on bovine α-chymotrypsin (at 23,500 nM, read-out: % Inhibition Chymo.); 0% at bovine trypsin (at 23,500 nM); 0% against human leukocyte elastase (at 23,500 nM). Moreover, the Ki was found to be 0.061 µM at human α-thrombin and 7.6 µM on human factor Xa.
As for `Cc1ccc(NS(=O)(=O)Cc2ccccc2)c(=O)n1CC(=O)N1CCC(ONC(=N)N)CC1` [Example 8, 3-(Benzylsulfonyl)amino-6-methyl-1-[(4-guanidinooxy)piperidinylcarbonylmethyl]-2-pyridinone trifluoroacetate], the inhibition at 56 µM at bovine trypsin (at 56,000 nM) and at human leukocyte elastase (at 56,000 nM) was 0% each time. In addition, at human α-thrombin, the inhibitory constant (Ki) was found to be 0.043 µM.
In the case of `Cc1cccc(S(=O)(=O)Nc2ccc(C)n(CC(=O)NCCONC(=N)N)c2=O)c1` [Example 5, 3-(3-Methylphenylsulfonyl)amino-6-methyl-1-[(2-guanidinooxyethyl)aminocarbonylmethyl]-2-pyridinone trifluoroacetate], the inhibition at 24.6 µM on human plasmin (at 24,600 nM) came to 0%; on bovine α-chymotrypsin (at 24,600 nM, read-out: % Inhibition Chymo.) it was 0%; on bovine trypsin (at 24,600 nM), 0%; at human leukocyte elastase (at 24,600 nM), 0%.
For the compound `COc1ccc(Br)cc1S(=O)(=O)Nc1ccc(C)n(CC(=O)NCCONC(=N)N)c1=O` [Example 55, 3-(3-Bromo-6-methoxyphenylsulfonyl)amino-6-methyl-1-[(2-guanidinooxyethyl)aminocarbonylmethyl]-2-pyridinoine trifluoroacetate], the Ki turned out to be 2.3 µM on bovine trypsin, 0.22 µM at human α-thrombin and 2.1 µM at human factor Xa.
With `N=C(N)NOCCNC(=O)Cn1cccc(NS(=O)(=O)Cc2ccccc2)c1=O` [Example 4, 3-Benzylsulfonylamino-1-[(2-guanidinooxyethyl)aminocarbonylmethyl]-2-pyridinone trifluoroacetate], the inhibition constant Ki came to 0.029 µM at human α-thrombin and 7.9 µM on human factor Xa. This compound gave an inhibition at 79 µM against human leukocyte elastase (at 79,000 nM) of 0%.
Consider `Cc1ccc(NS(=O)(=O)Cc2ccc(Cl)c(Cl)c2)c(=O)n1CC(=O)NCCONC(=N)N` [Example 24, 3-(3,4-Dichlorobenzylsulfonyl)amino-6-methyl-1-[(2-guanidinooxyethyl)aminocarbonylmethyl]-2-pyridinone trifluoroacetate], for which the Ki is 7.6 µM on bovine trypsin, 0.002 µM at human α-thrombin and 2.2 µM at human factor Xa. For the same compound, at 18 µM the inhibition on human leukocyte elastase was 0%.
